The target in this test is T1, Adrenergic receptor alpha-2 (Rattus norvegicus, UniProt P22086+P19328+P22909).
T1 sequence (P22086 whole entry): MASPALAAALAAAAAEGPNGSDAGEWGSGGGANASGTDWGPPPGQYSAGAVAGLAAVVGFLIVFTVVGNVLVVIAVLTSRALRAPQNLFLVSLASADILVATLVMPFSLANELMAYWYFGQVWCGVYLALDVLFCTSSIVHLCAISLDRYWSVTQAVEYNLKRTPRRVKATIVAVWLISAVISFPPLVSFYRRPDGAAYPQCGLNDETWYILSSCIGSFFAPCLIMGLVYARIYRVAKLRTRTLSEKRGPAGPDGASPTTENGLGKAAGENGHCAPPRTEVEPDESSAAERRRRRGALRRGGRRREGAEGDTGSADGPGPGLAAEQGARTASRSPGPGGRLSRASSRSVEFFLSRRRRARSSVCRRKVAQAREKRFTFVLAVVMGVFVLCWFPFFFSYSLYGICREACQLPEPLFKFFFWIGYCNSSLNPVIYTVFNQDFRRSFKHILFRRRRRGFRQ
T1 sequence (P19328 whole entry): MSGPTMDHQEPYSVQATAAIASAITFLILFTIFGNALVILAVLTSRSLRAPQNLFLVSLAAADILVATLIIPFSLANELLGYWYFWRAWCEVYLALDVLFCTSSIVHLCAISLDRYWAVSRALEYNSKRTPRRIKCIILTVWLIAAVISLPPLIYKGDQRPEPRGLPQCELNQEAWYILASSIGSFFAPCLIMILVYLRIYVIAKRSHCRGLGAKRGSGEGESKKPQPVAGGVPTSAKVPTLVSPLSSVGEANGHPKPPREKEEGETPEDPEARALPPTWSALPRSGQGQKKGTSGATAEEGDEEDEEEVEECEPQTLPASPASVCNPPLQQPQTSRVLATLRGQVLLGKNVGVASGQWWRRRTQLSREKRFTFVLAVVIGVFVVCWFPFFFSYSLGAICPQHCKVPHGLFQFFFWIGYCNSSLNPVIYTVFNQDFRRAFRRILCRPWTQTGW
T1 sequence (P22909 whole entry): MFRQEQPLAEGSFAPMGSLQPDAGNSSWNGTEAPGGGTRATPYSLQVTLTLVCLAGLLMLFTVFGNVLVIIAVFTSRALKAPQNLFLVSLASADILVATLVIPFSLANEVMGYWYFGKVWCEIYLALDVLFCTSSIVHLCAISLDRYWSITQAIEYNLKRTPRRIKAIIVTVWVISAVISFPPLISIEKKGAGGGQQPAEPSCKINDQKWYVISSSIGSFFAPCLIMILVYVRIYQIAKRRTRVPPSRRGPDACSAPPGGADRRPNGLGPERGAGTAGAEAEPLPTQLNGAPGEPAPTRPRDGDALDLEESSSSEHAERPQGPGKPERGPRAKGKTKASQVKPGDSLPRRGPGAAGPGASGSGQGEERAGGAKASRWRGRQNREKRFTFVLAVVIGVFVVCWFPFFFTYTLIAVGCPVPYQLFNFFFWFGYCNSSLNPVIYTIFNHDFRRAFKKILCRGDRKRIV
Put plainly: Alpha-2-adrenolytic activity was assessed from the ability to inhibit [3H]yohimbine binding to rat cerebral cortex preparation. The test is classed as tissue-based.

As for `CC1=NC(C)=C(C(=O)OC(C)CN(C)CC2COc3ccccc3O2)C(c2cccc([N+](=O)[O-])c2)/C1=C(\O)OC(C)C.Cl` (stereo unspecified), the IC50 was found to be 2 µM.

For the origin of these results see ChEMBL document CHEMBL1124620, “New 1,4-dihydropyridine derivatives combining calcium antagonism and alpha-adrenolytic properties” (J Med Chem, 1989).
